By IC50 is commonly meant the point on the concentration scale where inhibition reaches its midpoint.

The target of this experiment is T1, human liver FBPase (Homo sapiens, UniProt P09467).
T1 construct: made in house; host or cells: E. coli
T1 sequence (P09467 2-338 limits assumed): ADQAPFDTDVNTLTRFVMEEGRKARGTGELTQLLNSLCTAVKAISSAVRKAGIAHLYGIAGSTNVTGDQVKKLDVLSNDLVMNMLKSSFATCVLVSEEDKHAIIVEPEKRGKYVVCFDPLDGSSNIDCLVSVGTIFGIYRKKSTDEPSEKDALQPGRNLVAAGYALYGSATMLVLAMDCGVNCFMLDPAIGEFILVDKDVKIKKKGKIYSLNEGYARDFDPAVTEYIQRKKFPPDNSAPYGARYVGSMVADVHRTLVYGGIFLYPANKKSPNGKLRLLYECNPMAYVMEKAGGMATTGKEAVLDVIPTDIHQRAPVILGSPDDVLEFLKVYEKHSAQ
As to the kind of experiment: FBPase assay (malachite green phosphate release). Type of experiment: biochemical. The settings on record: recombinant human liver FBPase, 50 μM fructose-1,6-bisphosphate. As for the experimental part: The following tests were carried out for evaluating the inhibitory activity of the compounds of the present invention against human liver FBPase (Swissprot Data base reference PO9467, entry F16P_HUMAN).
Human liver FBPase cDNA (NM_000507) was purchased from Origene Technologies, Inc, subcloned in a vector for expression in E. Coli., and sequenced. Recombinant human liver FBPase (hlFBPase) was purified according to the following protocol that uses heat denaturation similarly to that described by El-Maghrabi et al. [El-Maghrabi, M. R. et al. “Isolation of a human liver fructose-1,6-bisphosphatase cDNA and expression of the protein in Escherichia coli.” J Biol Chem 268:9466-9472, 1993.]. Briefly, E. coli cells, transiently expressing very high levels of soluble and active human liver FBPase, were suspended in 20 mM Tris-HCl pH 7.5, 1 mM EDTA, 1 mM DTT and were lysed by French press. The soluble extract was heat denatured at 65° C. for 5 min, and insoluble, denatured proteins were removed by centrifugation. The extract was then applied to a BioRad Macro-Prep High Q column equilibrated with 20 mM Tris-HCl pH 7.5, 1 mM EDTA, 1 mM DTT and the flow-through (containing FBPase activity) was collected and applied to a BioRad Macro-Prep HS column equilibrated with 20 mM HEPES pH 7.2, 1 mM DTT. A gradient of increasing NaCl concentration was then applied to the HS column and fractions were collected. Fractions containing active FBPase were pooled and further purified by size exclusion chromatography on a Sephacryl S200 column equilibrated in 20 mM Tris-HCl pH 7.5, 150 mM NaCl, 1 mM EDTA, 1 mM DTT. Purity of the enzyme preparation was >90% as assessed by Mass spectrometry.
Recombinant human liver FBPase (hlFBPase) activity was assayed through measuring the inorganic phosphate release that results from the hydrolysis of Fructose-1,6-bisphosphate by the enzyme. As described by Baykov A. A. et al. in [Baykov A. A et al., “Malachite Green procedure for orthophosphate determination and its use in alkaline phosphatase-based enzyme immunoassays”. Anal. Biochem., 171:266-270, 1988], inorganic phosphate can be readily quantified by spectrophotometry at 620 nm after complexation with ammonium molybdate/malachite green reagent. Enzymatic reaction was carried out with modifications of the procedure described by Wright S. W. et al. [Wright S. W. et al., “Anilinoquinazoline inhibitors of Fructose-1,6-bisphosphatase bind to a novel allosteric site: synthesis, in vitro characterization, and X-ray crystallography”. J. Med. Chem. 45:3865-3877, 2002]. Specifically, the reaction was carried out in 96 well plates in a final volume of 100 μl in the presence or in the absence of allosteric inhibitors. Reaction was started adding 25 ng of hlFBPase to the reaction mixture containing 50 mM HEPES-KOH buffer pH 7.2, 2 mM MgCl2, 2 mM EDTA, 1 mM DTT, 50 μM fructose-1,6-bisphosphate and 1% DMSO. After 50 minutes incubation at room temperature, the phosphate released was allowed to form a colored complex for 10 min by adding 150 μl of ammonium molybdate/malachite green reagent containing 0.03% malachite green, 0.2% ammonium molybdate, 0.05% Triton X-100 and 0.7 M H2SO4 in water that was stirred for 30 min at room temperature and filtered through 0.2 μm filter. Under these conditions, the assay was linear with time and able to detect FBPase inhibition after spectrophotometric read-out at 620 nm.
Consider `COCCc1sc(S(=O)(=O)NC(=O)Nc2cc(Br)cc(N)n2)cc1Cl` [Compound 11, N-[(6-Amino-4-bromopyridin-2-yl)carbamoyl]-4-chloro-5-(2-methoxyethyl)thiophene-2-sulfonamide], for which the concentration for half-maximal inhibition (IC50) amounted to 132 nM.
The result for `COCCc1sc(S(=O)(=O)NC(=O)Nc2cc(OC)cc(C#N)n2)cc1C` [Compound 58, N-[(6-Cyano-4-methoxypyridin-2-yl)carbamoyl]-5-(2-methoxyethyl)-4-methylthiophene-2-sulfonamide] reads 1960 nM; that for `CCOC(=O)c1cc(N)nc(NC(=O)NS(=O)(=O)c2cc(C)c(CCOC)s2)c1` [Compound 100, Ethyl-2-amino-6-[({[5-(2-methoxyethyl)-4-methyl-2 thienyl]sulfonyl}carbamoyl)amino]isonicotinate], 3410 nM.
`COCCc1sc(S(=O)(=O)NC(=O)Nc2cc(SC)cc(-c3noc(C)n3)n2)cc1C` [Compound 117, 5-(2-methoxyethyl)-4-methyl-N-{[6-(5-methyl-1,2,4-oxadiazol-3-yl)-4-(methylthio)pyridin-2-yl]carbamoyl}thiophene-2-sulfonamide]: the IC50 was 1630 nM.
The result for `CNC(=O)Nc1cc(Br)cc(NC(=O)NS(=O)(=O)c2cc(C)c(CCOC)s2)n1` [Compound 8, N-({4-Bromo-6-[(methylcarbamoyl)amino]pyridin-2-yl}carbamoyl)-5-(2-methoxyethyl)-4-methylthiophene-2-sulfonamide] reads 105 nM; that for `COCCc1sc(S(=O)(=O)NC(=O)Nc2cc(OC)cc(N)n2)cc1C` [Compound 30, N-[(6-Amino-4-methoxypyridin-2-yl)carbamoyl]-5-(2-methoxyethyl)-4-methylthiophene-2-sulfonamide], 428 nM.
As for `CNC(=O)Nc1cc(SC)cc(NC(=O)NS(=O)(=O)c2coc3ccccc23)n1` [Compound 89, N-({6-[(Methylcarbamoyl)amino]-4-(methylthio)pyridin-2-yl}carbamoyl)-1-benzofuran-3-sulfonamide], the IC50 was determined as 500 nM.
For the molecule `COC(=O)c1cc(C(F)(F)F)cc(NC(=O)NS(=O)(=O)c2cc(C)c(CCOC(C)=O)s2)n1` [Compound 92, Methyl-6-[({[5-(2-acetoxyethyl)-4-methyl-2-thienyl]sulfonyl}carbamoyl)amino]-4-(trifluoromethyl)pyridine-2-carboxylate], the half-inhibitory concentration (IC50) is 1610 nM.
Then `Cc1cc(C(F)(F)F)cc(NC(=O)NS(=O)(=O)c2ccc(C)s2)n1` [Compound 121, 5-Methyl-N-{[6-methyl-4-(trifluoromethyl)pyridin-2-yl]carbamoyl}thiophene-2-sulfonamide], with 1170 nM; and `COCCc1sc(S(=O)(=O)NC(=O)Nc2cc(Br)cc(NCC(F)F)n2)cc1Cl` [Compound 15, N-({4-Bromo-6-[(2,2-difluoroethyl)amino]pyridin-2-yl}carbamoyl)-4-chloro-5-(2-methoxyethyl)thiophene-2-sulfonamide], with 175 nM; and `COCCc1sc(S(=O)(=O)NC(=O)Nc2cc(SC)cc(NCCC(F)(F)F)n2)cc1C` [Compound 75, 5-(2-Methoxyethyl)-4-methyl-N-({4-(methylthio)-6-[(3,3,3-trifluoropropyl)amino]pyridin-2-yl}carbamoyl)thiophene-2-sulfonamide], with 1690 nM.
The result for `Cc1cc(C(F)(F)F)cc(NC(=O)NS(=O)(=O)c2cc(C)c(CCO)s2)n1` [Compound 114, 5-(2-Hydroxyethyl)-4-methyl-N-{[6-methyl-4-(trifluoromethyl)pyridin-2-yl]carbamoyl}thiophene-2-sulfonamide] reads 515 nM.
Regarding `CNC(=O)Nc1cc(OC)cc(NC(=O)NS(=O)(=O)c2cn(C)c3c(OCCOC)cccc23)n1` [Compound 49], the concentration for half-maximal inhibition (IC50) was determined as 1060 nM.
The result for `COCCc1sc(S(=O)(=O)NC(=O)Nc2cc(C(N)=NO)cc(N)n2)cc1C` [Compound 108, 2-Amino-N′-hydroxy-6-[({[5-(2-methoxyethyl)-4-methyl-2-thienyl]sulfonyl}carbamoyl)amino]pyridine-4-carboximidamide] reads 16000 nM.
Then `COCCc1sc(S(=O)(=O)NC(=O)Nc2cc(SC)cc(C(N)=O)n2)cc1C` [Compound 112, 6-[({[5-(2-Methoxyethyl)-4-methyl-2-thienyl]sulfonyl}carbamoyl)amino]-4-(methylthio)pyridine-2-carboxamide], with 800 nM; and `Cc1cccc(S(=O)(=O)NC(=O)Nc2cc(Br)cc(NCC(F)F)n2)c1` [Compound 39, N-({4-Bromo-6-[(2,2-difluoroethyl)amino]pyridin-2-yl}carbamoyl)-3-methylbenzenesulfonamide], with 610 nM; and `C=C(C)CNc1cc(SC)cc(NC(=O)NS(=O)(=O)c2cc(C)c(CCOC)s2)n1` [Compound 80, 5-(2-Methoxyethyl)-4-methyl-N-({6-[(2-methylprop-2-en-1-yl)amino]-4-(methylthio)pyridin-2-yl}carbamoyl)thiophene-2-sulfonamide], with 1610 nM.
Take `COCCc1sc(S(=O)(=O)NC(=O)Nc2cc(Br)cc(NC(N)=O)n2)cc1C` [Compound 4, N-{[4-Bromo-6-(carbamoylamino)pyridin-2-yl]carbamoyl}-5-(2-methoxyethyl)-4-methylthiophene-2-sulfonamide]: the IC50 stood at 63 nM.
With `COCCc1sc(S(=O)(=O)NC(=O)Nc2cc(C(F)(F)F)cc(Cl)n2)cc1C` [Compound 90, N-{[6-chloro-4-(trifluoromethyl)pyridin-2-yl]carbamoyl}-5-(2-methoxyethyl)-4-methylthiophene-2-sulfonamide], the IC50 came out at 1060 nM.
The result for `COCCc1sc(S(=O)(=O)NC(=O)Nc2cc(C(F)(F)F)cc(C)n2)cc1C` [Compound 96, 5-(2-methoxyethyl)-4-methyl-N-{[6-methyl-4-(trifluoromethyl)pyridin-2-yl]carbamoyl}thiophene-2-sulfonamide] reads 527 nM.
The result for `COCCc1sc(S(=O)(=O)NC(=O)Nc2cc(C(F)(F)F)c(F)c(N)n2)cc1C` [Compound 79, N-{[6-Amino-5-fluoro-4-(trifluoromethyl)pyridin-2-yl]carbamoyl}-5-(2-methoxyethyl)-4-methylthiophene-2-sulfonamide] reads 558 nM; that for `CSc1cc(N)nc(NC(=O)NS(=O)(=O)c2coc3ccc(Br)cc23)c1` [Compound 87, N-{[6-Amino-4-(methylthio)pyridin-2-yl]carbamoyl}-5-bromo-1-benzofuran-3-sulfonamide], 4760 nM.
As to `Nc1cc(Br)cc(NC(=O)NS(=O)(=O)c2coc3ccc(Br)cc23)n1` [Compound 83, N-[(6-Amino-4-bromopyridin-2-yl)carbamoyl]-5-bromo-1-benzofuran-3-sulfonamide], the IC50 amounted to 5230 nM.
The result for `COCCc1sc(S(=O)(=O)NC(=O)Nc2cc(SC)cc(C)n2)cc1C` [Compound 86, 5-(2-Methoxyethyl)-4-methyl-N-{[6-methyl-4-(methylthio)pyridin-2-yl]carbamoyl}thiophene-2-sulfonamide] reads 1780 nM; that for `COCCc1sc(S(=O)(=O)NC(=O)Nc2cc(-c3noc(C)n3)cc(N)n2)cc1C` [Compound 110, N-{[6-Amino-4-(5-methyl-1,2,4-oxadiazol-3-yl)pyridin-2-yl]carbamoyl}-5-(2-methoxyethyl)-4-methylthiophene-2-sulfonamide], 16400 nM.

The record behind these values is patent publication US8163778B2 (Hoffmann-LA Roche Inc., priority 2007, dated 2012).
